Target: ROMK (Kir1.1) channel (Homo sapiens (Human), UniProt P48048)
Experiment: Thallium Flux Assay
Assay type: cell-based
Procedure: A Thallium Flux Assay was performed on each of the final product compounds of the Examples. This assay has been described previously; see, e.g., PCT Published Application WO 2013/062900.

ROMK (Kir1.1) channel, sequence (P48048 whole entry): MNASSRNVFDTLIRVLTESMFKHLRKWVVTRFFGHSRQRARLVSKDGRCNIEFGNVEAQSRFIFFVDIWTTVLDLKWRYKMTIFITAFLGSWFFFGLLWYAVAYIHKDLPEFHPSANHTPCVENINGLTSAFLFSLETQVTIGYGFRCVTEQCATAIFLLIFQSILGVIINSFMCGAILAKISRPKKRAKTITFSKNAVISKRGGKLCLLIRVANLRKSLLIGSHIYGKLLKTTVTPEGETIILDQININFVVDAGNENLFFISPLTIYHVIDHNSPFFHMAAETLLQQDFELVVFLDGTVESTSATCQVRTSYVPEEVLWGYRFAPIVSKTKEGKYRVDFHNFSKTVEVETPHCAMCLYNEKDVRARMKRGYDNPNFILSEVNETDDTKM

Molecule	IC50 [nM]
CC1=C(N2CC[C@]3(CC[C@@H](N(C)Cc4ccc5c(ccc6nnnn65)c4)CC3)C2=O)COC1=O [Example 96]	21
CC1=C(N2CC[C@]3(CC[C@@H](N(C)[C@@H](CO)c4ccc(-n5cnnn5)nc4)CC3)C2=O)COC1=O [Example 102]	300
CC1=C(N2CC[C@]3(CC[C@@H](N(C)Cc4ccc5c(c4)Cn4nnnc4-5)CC3)C2=O)COC1=O [Example 106]	8.8
CC1=C(N2CC[C@]3(CC[C@@H](N(C)Cc4nnc(-n5cnnn5)cc4C)CC3)C2=O)COC1=O [Example 107]	22
CC1=C(N2CC[C@]3(CC[C@H](N(C)Cc4ccc(-n5ncnn5)nn4)CC3)C2=O)COC1=O [Example 114]	430
CC1=C(N2CC[C@]3(CC[C@](C)(N(C)Cc4ccc(-n5cnnn5)nn4)CC3)C2=O)COC1=O [Example 115]	15
CC1=C(N2CC[C@]3(CC[C@@](C)(N(C)Cc4ccc(-n5cnnn5)nn4)CC3)C2=O)COC1=O [Example 116]	24
CC1=C(N2CC[C@]3(CC[C@@H](N(C)Cc4ccc5c(c4F)Cn4nnnc4-5)CC3)C2=O)COC1=O [Example 121]	23
CC1=C(N2CC[C@]3(CC[C@H](N(C)C[C@H](O)c4ccc5c(c4C)COC5=O)CC3)C2=O)COC1=O [Example 123]	77
CC1=C(N2CC[C@]3(CC[C@@H](N(C)Cc4ncc(-n5cnnn5)nc4C)CC3)C2=O)COC1=O [Example 125]	22
CC1=C(N2CC[C@]3(CC[C@](C)(N(C)Cc4cnc(-n5cnnn5)cn4)CC3)C2=O)COC1=O [Example 127]	91
CN(Cc1cnc(-n2cnnn2)cn1)C1CCC2(CC1)CCN(C1=CC(=O)OC1)C2=O (centres unmarked) [Example 128]	93
CC1=C(N2CC[C@]3(CC[C@@](C)(N(C)Cc4cnc(-n5cnnn5)cn4)CC3)C2=O)COC1=O [Example 129]	45
CCCN(C[C@H](O)c1ccc2c(c1C)COC2=O)C1CCC2(CC1)CCN(C1=C(C)C(=O)OC1)C2=O (stereo partly drawn) [Example 132, 8-{[(2R)-2-hydroxy-2-(4-methyl-1-oxo-1,3-dihydro-2-benzofuran-5-yl)ethyl](propyl)amino}-2-(4-methyl-5-oxo-2,5-dihydrofuran-3-yl)-2-azaspiro[4.5]decan-1-one]	100
CCN(Cc1ccc2c(c1)Cn1nnnc1-2)[C@H]1CC[C@@]2(CCN(C3=C(C)C(=O)OC3)C2=O)CC1 [Example 133]	36
CCN(Cc1ccc(-n2cnnn2)nc1)[C@H]1CC[C@]2(CCN(C3=C(C)C(=O)OC3)C2=O)CC1 [Example 134]	470
CC1=C(N2CC[C@]3(CC[C@H](N(CCO)Cc4ccc(-n5cnnn5)cn4)CC3)C2=O)COC1=O [Example 136]	160
CC1=C(N2CC[C@]3(CC[C@H](N(CC(=O)N(C)C)Cc4ccc(-n5cnnn5)nc4)CC3)C2=O)COC1=O [Example 139]	120
CC1=C(N2CC[C@]3(CC[C@@H](N(CC(N)=O)Cc4ccc(-n5cnnn5)nc4)CC3)C2=O)COC1=O [Example 141]	680
CCN(Cc1ccc2c(c1C)COC2=O)C1CCC2(CC1)CCN(C1=C(C)C(=O)OC1)C2=O (centres unmarked) [Example 142]	490

More lines, in order of falling IC50, values ahead:

IC50 [nM]	Molecule
300	CC1=C(N2CC[C@]3(CC[C@H](N(C)Cc4ccc(-n5ncnn5)cc4)CC3)C2=O)COC1=O [Example 111]
290	CC1=C(N2CC[C@]3(CC[C@H](N(C)[C@@H](CO)c4ccc(-n5cnnn5)nc4)CC3)C2=O)COC1=O [Example 101]
160	CC1=C(N2CC[C@]3(CC[C@H](N(CCO)Cc4ccc(-n5cnnn5)nc4)CC3)C2=O)COC1=O [Example 131, (5s,8s)-8-[(2-hydroxyethyl) {[6-(1H-tetrazol-1-yl)pyridin-3-yl]methyl}amino]-2-(4-methyl-5-oxo-2,5-dihydrofuran-3-yl)-2-azaspiro[4.5]decan-1-one]
150	CC1=C(N2CC[C@]3(CC[C@H](N(C)CCc4ccc5c(c4)COC5=O)CC3)C2=O)COC1=O [Example 105]
110	CC1=C(N2CC[C@]3(CC[C@H](N(CC(N)=O)Cc4ccc(-n5cnnn5)nc4)CC3)C2=O)COC1=O [Example 140]
87	CN(Cc1ccc(-n2cnnn2)nn1)C1CCC2(CC1)CCN(C1=CC(=O)OC1)C2=O (centres unmarked) [Example 103]
64	CC1=C(N2CCC3(CCC(N(C)C[C@H](O)c4ccc5c(c4C)COC5=O)CC3)C2=O)COC1=O (some centres unmarked) [Example 124]
43	CC1=C(N2C(=O)[C@]3(CC[C@H](N(C)Cc4ccc5c(c4)Cn4nnnc4-5)CC3)C[C@@H]2C)COC1=O [Example 120]
41	C[C@H]1C[C@]2(CC[C@@H](N(C)Cc3ccc(-n4cnnn4)nn3)CC2)C(=O)N1C1=CC(=O)OC1 [Example 104, (3S,5r,8S)-8-(((6-(1H-tetrazol-1-yl)pyridazin-3-yl)methyl)(methyl)amino)-3-methyl-2-(5-oxo-2,5-dihydrofuran-3-yl)-2-azaspiro[4.5]decan-1-one]
36	CC1=C(N2CC[C@]3(CC[C@@H](N(C)Cc4ccc(-n5ncnn5)nn4)CC3)C2=O)COC1=O [Example 113]
34	CCN(Cc1ccc(-n2cnnn2)cn1)[C@H]1CC[C@]2(CCN(C3=C(C)C(=O)OC3)C2=O)CC1 [Example 138]
32	CC1=C(N2CC[C@]3(CC[C@@H](N(C)Cc4ccc5c(c4)CCc4nnnn4-5)CC3)C2=O)COC1=O [Example 112]
32	(5s,8s)-2-(4-methyl-5-oxo-2,5-dihydrofuran-3-yl)-8-({[5-(1H-tetrazol-1-yl)pyrazin-2-yl]methyl}amino)-2-azaspiro[4.5]decan-1-one [Example 13]
30	CC1=C(N2CC[C@]3(CC[C@@H](N(CCO)Cc4ccc(-n5cnnn5)nc4)CC3)C2=O)COC1=O [Example 130, (5r,8r)-8-(((6-(1H-tetrazol-1-yl)pyridin-3-yl)methyl)(2-hydroxyethyl)amino)-2-(4-methyl-5-oxo-2,5-dihydrofuran-3-yl)-2-azaspiro[4.5]decan-1-one]
26	CC1=C(N2CC[C@]3(CC[C@@H](N(C)Cc4cc5c(cc4C)-c4nnnn4C5)CC3)C2=O)COC1=O [Example 122]
24	CC1=C(N2CC[C@]3(CC[C@@H](N(C)[C@@H](C)c4ccc(-n5cnnn5)nc4)CC3)C2=O)COC1=O [Example 95]
11	CC1=C(N2CC[C@]3(CC[C@@H](N(C)[C@H](C)c4ccc(-n5cnnn5)nc4)CC3)C2=O)COC1=O [Example 94]
3.4	CC1=C(N2CC[C@]3(CC[C@@H](N(C)Cc4ccc(-n5ncnn5)cc4)CC3)C2=O)COC1=O [Example 109]

Reference: patent publication US9718808B2, “Inhibitors of the renal outer medullary potassium channel” (Merck Sharp & Dohme Corp., priority 2014, dated 2017)
